In the NIST ThermoML archive (doi:10.1021/je050261u):

Test: xn = mol fraction of the nth substance listed
Conditions: Liquid, Vibrating tube method

CCCCCCC [heptane] + CCO
mass density [kg/m3]
Conditions | x2 = 0 | x2 = 0.125 | x2 = 0.25 | x2 = 0.375 | x2 = 0.5 | x2 = 0.625 | x2 = 0.75 | x2 = 0.875
313.15 K, 35000 kPa | 696.9 | 701.6 | 707 | 714.3 | 723.6 | 735 | 750.3 | 770.6
313.15 K, 40000 kPa | 700.4 | 705.2 | 710.6 | 717.9 | 727.2 | 738.6 | 753.8 | 774.1
313.15 K, 45000 kPa | 703.9 | 708.6 | 714.1 | 721.3 | 730.8 | 742.1 | 757.3 | 777.6
313.15 K, 50000 kPa | 707.1 | 711.9 | 717.4 | 724.7 | 734.1 | 745.4 | 760.6 | 780.9
313.15 K, 55000 kPa | 710.1 | 715.1 | 720.6 | 727.9 | 737.3 | 748.6 | 763.8 | 784.1
313.15 K, 60000 kPa | 713.1 | 718.1 | 723.6 | 730.9 | 740.2 | 751.6 | 766.9 | 787.1
313.15 K, 65000 kPa | 716 | 721 | 726.6 | 733.9 | 743.2 | 754.7 | 769.9 | 790.1
323.15 K, 100 kPa | 657.7 | 661.8 | 666.9 | 674.1 | 683.5 | 695 | 710.6 | 731.7
323.15 K, 5000 kPa | 663.4 | 667.4 | 672.6 | 679.7 | 689.2 | 700.5 | 716.1 | 737
323.15 K, 10000 kPa | 668.7 | 672.7 | 678 | 685.2 | 694.6 | 705.8 | 721.3 | 742.1
323.15 K, 15000 kPa | 673.4 | 677.6 | 682.9 | 690 | 699.4 | 710.7 | 726.1 | 746.7
323.15 K, 20000 kPa | 678 | 682.2 | 687.6 | 694.7 | 704 | 715.3 | 730.6 | 751.1
323.15 K, 25000 kPa | 682.5 | 686.8 | 692.1 | 699.2 | 708.5 | 719.8 | 735.1 | 755.5
323.15 K, 30000 kPa | 686.5 | 690.9 | 696.2 | 703.4 | 712.7 | 723.9 | 739.1 | 759.5
323.15 K, 35000 kPa | 690.4 | 694.7 | 700 | 707.3 | 716.6 | 727.8 | 743 | 763.4
323.15 K, 40000 kPa | 694.1 | 698.5 | 703.7 | 711 | 720.4 | 731.6 | 746.8 | 767
323.15 K, 45000 kPa | 697.7 | 702 | 707.4 | 714.6 | 724 | 735.2 | 750.3 | 770.6
323.15 K, 50000 kPa | 701.1 | 705.4 | 710.8 | 718 | 727.4 | 738.6 | 753.8 | 774
323.15 K, 55000 kPa | 704.3 | 708.6 | 714 | 721.3 | 730.6 | 741.9 | 757 | 777.2
323.15 K, 60000 kPa | 707.4 | 711.8 | 717.2 | 724.5 | 733.8 | 745.1 | 760.2 | 780.3
323.15 K, 65000 kPa | 710.3 | 714.7 | 720.2 | 727.5 | 736.8 | 748.1 | 763.2 | 783.4
333.15 K, 100 kPa | 649.1 | 652.3 | 657.3 | 664.5 | 673.7 | 685.1 | 700.9 | 722.2
333.15 K, 5000 kPa | 655.2 | 658.4 | 663.4 | 670.7 | 679.9 | 691.2 | 706.8 | 727.9
333.15 K, 10000 kPa | 661 | 664.2 | 669.4 | 676.6 | 685.7 | 697 | 712.4 | 733.4
333.15 K, 15000 kPa | 666.3 | 669.6 | 674.7 | 681.9 | 691.1 | 702.3 | 717.7 | 738.5
333.15 K, 20000 kPa | 670.9 | 674.4 | 679.6 | 686.7 | 696 | 707.1 | 722.5 | 743.2
333.15 K, 25000 kPa | 675.4 | 678.8 | 684.3 | 691.4 | 700.6 | 711.8 | 727 | 747.5
333.15 K, 30000 kPa | 679.7 | 683.1 | 688.7 | 695.7 | 704.9 | 716 | 731.3 | 751.7
333.15 K, 35000 kPa | 683.8 | 687.1 | 692.8 | 699.9 | 709.1 | 720.1 | 735.4 | 755.8
333.15 K, 40000 kPa | 687.6 | 690.9 | 696.6 | 703.8 | 713 | 724 | 739.2 | 759.6
333.15 K, 45000 kPa | 691.3 | 694.6 | 700.4 | 707.5 | 716.7 | 727.7 | 743 | 763.3
333.15 K, 50000 kPa | 694.8 | 698.2 | 704 | 711.2 | 720.3 | 731.4 | 746.6 | 766.8
333.15 K, 55000 kPa | 698.4 | 701.7 | 707.6 | 714.7 | 723.9 | 735 | 750.2 | 770.4
333.15 K, 60000 kPa | 701.5 | 705 | 710.8 | 718 | 727.2 | 738.2 | 753.4 | 773.6
333.15 K, 65000 kPa | 704.7 | 708.1 | 714 | 721.3 | 730.4 | 741.4 | 756.7 | 776.8
